# Assay results reported in patent US11608328B2, “Chemical probes to identify anti-mycobacterial MmpL3 inhibitors” (Creighton University, priority 2019, dated 2023).
# Target: MmpL3tb(G253E) (Mycobacterium tuberculosis, UniProt P9WJV5, G253E)
# Type: binding
row,SMILES,BLI binding to MmpL3tb(G253E) versus WT
1,C[C@@H]1[C@H]2C[C@@H](C[C@H]1NC(=O)c1cc3ccccc3[nH]1)C2(C)C [North 4],unaltered by the G253E mutation
2,Cc1cc(C)c2cc(C(=O)NC3CCCCCCC3)[nH]c2c1 [North 21],no binding to MmpL3tb(G253E) was detected
3,CC(C)=CCC/C(C)=C/CNCCNC1C2CC3CC(C2)CC1C3 (stereo not drawn) [SQ109],no binding to MmpL3tb(G253E) was detected
